Results taken from ChEMBL document CHEMBL4507268 (2021).

Columns and labels:
[1] = system: Phosphatidylinositol 4,5-bisphosphate 3-kinase catalytic subunit alpha isoform (Homo sapiens), P42336 [E542K]; settings: Compound concentration 1000.0 nM
[2] = target: Phosphatidylinositol 4,5-bisphosphate 3-kinase catalytic subunit gamma isoform (Homo sapiens) (UniProt P48736); settings: Compound concentration 1000.0 nM
[3] = target: Mitogen-activated protein kinase kinase kinase 1 (Homo sapiens) (UniProt Q13233); settings: Compound concentration 1000.0 nM
[4] = target: Serine/threonine-protein kinase PAK 2 (Homo sapiens) (UniProt Q13177); settings: Compound concentration 1000.0 nM
Serine/threonine-protein kinase PAK 2 (Homo sapiens), sequence (Q13177 whole entry): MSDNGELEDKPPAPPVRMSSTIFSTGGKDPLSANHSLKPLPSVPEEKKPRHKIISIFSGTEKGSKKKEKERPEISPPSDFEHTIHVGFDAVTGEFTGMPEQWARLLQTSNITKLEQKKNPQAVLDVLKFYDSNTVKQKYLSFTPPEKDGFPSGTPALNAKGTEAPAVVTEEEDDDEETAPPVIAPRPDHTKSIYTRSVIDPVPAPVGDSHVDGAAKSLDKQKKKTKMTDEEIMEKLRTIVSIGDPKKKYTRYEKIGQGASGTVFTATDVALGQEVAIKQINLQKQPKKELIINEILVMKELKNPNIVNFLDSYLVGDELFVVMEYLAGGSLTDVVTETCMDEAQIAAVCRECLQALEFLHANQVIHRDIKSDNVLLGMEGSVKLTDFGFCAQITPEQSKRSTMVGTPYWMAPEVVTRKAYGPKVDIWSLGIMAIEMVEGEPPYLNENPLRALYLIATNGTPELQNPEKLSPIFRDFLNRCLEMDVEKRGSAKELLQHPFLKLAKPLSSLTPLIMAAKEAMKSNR

[5] = target: Alpha-2C adrenergic receptor (Homo sapiens) (UniProt P18825); settings: Compound concentration 10.0 uM
Alpha-2C adrenergic receptor (Homo sapiens), sequence (P18825 whole entry): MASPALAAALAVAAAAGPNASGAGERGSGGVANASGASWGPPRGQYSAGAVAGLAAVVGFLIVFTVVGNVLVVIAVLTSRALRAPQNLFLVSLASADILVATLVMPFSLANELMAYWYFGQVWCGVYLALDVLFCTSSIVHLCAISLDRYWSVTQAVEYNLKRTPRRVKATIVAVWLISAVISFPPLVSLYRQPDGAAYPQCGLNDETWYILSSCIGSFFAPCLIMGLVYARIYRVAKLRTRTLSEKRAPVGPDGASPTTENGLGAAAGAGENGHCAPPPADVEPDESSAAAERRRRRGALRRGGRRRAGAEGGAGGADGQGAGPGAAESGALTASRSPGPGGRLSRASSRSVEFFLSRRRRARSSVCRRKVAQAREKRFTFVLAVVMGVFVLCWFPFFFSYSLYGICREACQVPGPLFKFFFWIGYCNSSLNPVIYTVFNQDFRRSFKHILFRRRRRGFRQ

[6] = target: Mitogen-activated protein kinase 1 (Homo sapiens) (UniProt P28482); settings: Compound concentration 1000.0 nM
Mitogen-activated protein kinase 1 (Homo sapiens), sequence (P28482 whole entry): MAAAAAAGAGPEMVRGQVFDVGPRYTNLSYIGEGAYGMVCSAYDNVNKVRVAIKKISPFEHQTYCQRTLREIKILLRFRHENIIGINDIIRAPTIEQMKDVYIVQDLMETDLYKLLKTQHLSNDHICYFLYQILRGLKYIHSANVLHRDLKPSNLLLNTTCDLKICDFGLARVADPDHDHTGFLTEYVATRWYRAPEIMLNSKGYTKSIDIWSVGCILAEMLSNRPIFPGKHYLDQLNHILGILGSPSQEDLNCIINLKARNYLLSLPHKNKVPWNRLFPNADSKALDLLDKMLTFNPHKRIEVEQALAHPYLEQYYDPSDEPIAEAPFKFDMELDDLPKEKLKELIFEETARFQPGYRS

[7] = target: Serine/threonine-protein kinase 38 (Homo sapiens) (UniProt Q15208); settings: Compound concentration 1000.0 nM
Serine/threonine-protein kinase 38 (Homo sapiens), sequence (Q15208 2-465 limits assumed): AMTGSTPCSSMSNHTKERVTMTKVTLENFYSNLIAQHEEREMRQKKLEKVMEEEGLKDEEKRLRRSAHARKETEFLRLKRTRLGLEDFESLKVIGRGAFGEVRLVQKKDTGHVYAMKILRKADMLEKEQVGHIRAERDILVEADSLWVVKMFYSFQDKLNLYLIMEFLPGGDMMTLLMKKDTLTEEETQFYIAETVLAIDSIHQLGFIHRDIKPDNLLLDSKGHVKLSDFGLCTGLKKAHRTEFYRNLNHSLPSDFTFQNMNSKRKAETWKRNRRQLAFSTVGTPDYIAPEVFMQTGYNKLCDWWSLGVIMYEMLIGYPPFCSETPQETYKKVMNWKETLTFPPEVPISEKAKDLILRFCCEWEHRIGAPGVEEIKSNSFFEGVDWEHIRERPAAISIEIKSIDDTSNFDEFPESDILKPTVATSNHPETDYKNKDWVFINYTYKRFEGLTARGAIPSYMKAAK

[8] = target: T1, Tyrosine-protein kinase JAK3 (Homo sapiens) (UniProt P52333); settings: Compound concentration 1000.0 nM
T1 sequence (whole entry): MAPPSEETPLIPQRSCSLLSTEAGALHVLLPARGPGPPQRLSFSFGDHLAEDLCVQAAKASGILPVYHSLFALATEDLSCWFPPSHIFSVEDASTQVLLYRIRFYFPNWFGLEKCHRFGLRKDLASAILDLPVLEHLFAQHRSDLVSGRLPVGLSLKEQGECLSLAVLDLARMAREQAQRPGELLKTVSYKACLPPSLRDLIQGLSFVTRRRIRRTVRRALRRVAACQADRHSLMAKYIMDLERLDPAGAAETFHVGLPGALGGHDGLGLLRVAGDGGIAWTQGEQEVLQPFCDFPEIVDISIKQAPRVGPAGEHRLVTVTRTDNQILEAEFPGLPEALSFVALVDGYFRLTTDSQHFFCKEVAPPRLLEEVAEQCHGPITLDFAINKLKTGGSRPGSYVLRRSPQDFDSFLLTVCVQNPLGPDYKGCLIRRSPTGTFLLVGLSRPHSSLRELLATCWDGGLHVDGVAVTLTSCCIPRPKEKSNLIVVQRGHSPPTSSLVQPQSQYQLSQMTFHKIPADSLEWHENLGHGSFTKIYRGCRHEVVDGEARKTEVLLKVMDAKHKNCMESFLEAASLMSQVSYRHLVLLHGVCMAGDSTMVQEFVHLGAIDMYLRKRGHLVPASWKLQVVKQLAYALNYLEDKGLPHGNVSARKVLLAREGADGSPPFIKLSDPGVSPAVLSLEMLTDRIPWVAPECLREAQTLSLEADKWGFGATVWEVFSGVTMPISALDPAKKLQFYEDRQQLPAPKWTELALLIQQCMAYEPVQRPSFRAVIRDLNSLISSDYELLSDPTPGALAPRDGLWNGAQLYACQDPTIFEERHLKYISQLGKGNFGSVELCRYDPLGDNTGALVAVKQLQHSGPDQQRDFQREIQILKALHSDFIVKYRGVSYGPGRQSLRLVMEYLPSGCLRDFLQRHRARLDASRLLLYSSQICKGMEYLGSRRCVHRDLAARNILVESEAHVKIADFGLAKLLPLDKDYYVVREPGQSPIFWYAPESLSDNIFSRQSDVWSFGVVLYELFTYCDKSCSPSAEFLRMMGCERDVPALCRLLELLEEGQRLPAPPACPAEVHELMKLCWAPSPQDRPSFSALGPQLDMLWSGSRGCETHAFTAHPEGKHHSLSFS

[9] = target: T2, Serine/threonine-protein kinase TAO3 (Homo sapiens) (UniProt Q9H2K8); settings: Compound concentration 1000.0 nM
T2 sequence (whole entry): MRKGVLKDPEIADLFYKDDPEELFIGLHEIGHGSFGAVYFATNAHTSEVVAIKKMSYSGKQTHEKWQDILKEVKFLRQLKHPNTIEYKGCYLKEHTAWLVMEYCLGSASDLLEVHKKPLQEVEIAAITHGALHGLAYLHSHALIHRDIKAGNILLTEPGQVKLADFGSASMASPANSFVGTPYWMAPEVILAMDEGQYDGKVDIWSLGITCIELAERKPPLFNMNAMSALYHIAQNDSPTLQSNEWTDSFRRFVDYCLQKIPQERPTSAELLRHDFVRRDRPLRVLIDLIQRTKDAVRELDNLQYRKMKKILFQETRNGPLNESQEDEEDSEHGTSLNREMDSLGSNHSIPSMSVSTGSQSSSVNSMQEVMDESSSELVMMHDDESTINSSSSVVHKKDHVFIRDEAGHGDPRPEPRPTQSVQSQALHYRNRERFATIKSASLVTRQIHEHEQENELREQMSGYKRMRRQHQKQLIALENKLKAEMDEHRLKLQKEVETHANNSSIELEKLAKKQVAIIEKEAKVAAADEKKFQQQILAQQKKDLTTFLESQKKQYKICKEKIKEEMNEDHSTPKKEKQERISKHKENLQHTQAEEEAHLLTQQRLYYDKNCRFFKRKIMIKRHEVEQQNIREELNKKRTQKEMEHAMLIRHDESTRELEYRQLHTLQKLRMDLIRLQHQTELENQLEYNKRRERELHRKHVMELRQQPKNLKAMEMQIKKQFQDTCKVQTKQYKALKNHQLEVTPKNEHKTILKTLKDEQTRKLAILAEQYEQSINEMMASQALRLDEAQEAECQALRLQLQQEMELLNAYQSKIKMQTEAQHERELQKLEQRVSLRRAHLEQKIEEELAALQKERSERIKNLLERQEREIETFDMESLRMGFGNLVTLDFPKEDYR

[10] = target: T3, Serine/threonine-protein kinase Nek3 (Homo sapiens) (UniProt P51956); settings: Compound concentration 1000.0 nM
T3 sequence (whole entry): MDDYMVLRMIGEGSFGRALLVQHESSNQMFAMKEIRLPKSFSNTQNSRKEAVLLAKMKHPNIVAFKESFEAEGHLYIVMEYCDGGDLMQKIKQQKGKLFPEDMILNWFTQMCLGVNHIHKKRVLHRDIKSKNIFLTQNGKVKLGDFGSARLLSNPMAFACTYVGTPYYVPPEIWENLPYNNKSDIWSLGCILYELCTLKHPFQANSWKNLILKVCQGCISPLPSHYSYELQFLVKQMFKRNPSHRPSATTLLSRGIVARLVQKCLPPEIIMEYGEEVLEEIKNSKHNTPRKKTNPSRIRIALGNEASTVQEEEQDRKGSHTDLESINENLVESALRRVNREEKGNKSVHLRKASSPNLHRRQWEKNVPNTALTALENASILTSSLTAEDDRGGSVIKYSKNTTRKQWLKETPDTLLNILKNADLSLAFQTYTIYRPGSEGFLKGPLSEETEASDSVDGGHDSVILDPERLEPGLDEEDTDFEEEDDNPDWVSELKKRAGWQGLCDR

[11] = target: Serine/threonine-protein kinase DCLK1 (Homo sapiens) (UniProt O15075); settings: Compound concentration 1000.0 nM
Serine/threonine-protein kinase DCLK1 (Homo sapiens), sequence (O15075 whole entry): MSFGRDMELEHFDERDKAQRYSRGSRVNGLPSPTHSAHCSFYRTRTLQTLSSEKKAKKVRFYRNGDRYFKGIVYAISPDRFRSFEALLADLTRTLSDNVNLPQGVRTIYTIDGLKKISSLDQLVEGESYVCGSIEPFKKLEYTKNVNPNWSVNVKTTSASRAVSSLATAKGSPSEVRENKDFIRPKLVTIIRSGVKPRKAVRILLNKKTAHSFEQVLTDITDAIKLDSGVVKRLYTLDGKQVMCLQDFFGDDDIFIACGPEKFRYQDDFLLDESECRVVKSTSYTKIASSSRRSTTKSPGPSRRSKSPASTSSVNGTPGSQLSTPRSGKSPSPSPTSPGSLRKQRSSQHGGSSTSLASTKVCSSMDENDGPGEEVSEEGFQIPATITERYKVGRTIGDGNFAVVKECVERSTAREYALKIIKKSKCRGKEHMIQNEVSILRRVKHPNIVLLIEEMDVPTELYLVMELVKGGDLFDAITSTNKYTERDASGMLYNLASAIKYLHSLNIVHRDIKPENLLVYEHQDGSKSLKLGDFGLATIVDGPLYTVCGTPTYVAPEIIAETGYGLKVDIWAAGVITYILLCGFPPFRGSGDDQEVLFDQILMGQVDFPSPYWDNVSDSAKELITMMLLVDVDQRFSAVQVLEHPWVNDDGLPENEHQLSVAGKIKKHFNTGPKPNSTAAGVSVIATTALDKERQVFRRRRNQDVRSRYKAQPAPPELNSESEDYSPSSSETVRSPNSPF

Phosphatidylinositol 4,5-bisphosphate 3-kinase catalytic subunit gamma isoform (Homo sapiens), sequence (P48736 whole entry, looked up, canonical isoform): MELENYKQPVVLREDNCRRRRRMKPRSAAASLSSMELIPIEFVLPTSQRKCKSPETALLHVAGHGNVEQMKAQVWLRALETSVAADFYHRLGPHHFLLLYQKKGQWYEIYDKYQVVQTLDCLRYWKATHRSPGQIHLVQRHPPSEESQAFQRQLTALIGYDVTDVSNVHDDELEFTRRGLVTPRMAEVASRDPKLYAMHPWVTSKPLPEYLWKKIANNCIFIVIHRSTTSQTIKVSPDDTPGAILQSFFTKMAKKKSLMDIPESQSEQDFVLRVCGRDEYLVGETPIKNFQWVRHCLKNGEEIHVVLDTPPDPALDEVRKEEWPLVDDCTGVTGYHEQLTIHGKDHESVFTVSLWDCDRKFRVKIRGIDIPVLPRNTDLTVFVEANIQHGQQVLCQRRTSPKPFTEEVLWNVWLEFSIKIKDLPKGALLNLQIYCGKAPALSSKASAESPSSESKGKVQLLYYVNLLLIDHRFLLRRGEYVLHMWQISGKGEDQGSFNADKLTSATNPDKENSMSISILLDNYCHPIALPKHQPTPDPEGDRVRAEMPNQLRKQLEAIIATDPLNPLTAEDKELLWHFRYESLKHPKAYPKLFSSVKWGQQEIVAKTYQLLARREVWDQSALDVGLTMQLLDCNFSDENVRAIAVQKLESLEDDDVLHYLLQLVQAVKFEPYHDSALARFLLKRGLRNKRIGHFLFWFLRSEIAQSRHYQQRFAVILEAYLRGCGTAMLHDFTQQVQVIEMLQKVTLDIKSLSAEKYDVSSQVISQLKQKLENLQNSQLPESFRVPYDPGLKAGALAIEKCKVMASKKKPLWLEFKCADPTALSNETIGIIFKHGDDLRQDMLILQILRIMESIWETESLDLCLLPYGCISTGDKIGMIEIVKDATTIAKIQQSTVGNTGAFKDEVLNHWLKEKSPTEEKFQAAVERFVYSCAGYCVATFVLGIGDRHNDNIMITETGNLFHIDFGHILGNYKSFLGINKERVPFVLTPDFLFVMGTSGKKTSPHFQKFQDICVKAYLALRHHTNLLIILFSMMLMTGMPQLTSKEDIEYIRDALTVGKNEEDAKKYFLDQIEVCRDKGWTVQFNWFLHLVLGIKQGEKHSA
Phosphatidylinositol 4,5-bisphosphate 3-kinase catalytic subunit alpha isoform (Homo sapiens), P42336 [E542K], sequence (P42336 whole entry E542K, canonical isoform): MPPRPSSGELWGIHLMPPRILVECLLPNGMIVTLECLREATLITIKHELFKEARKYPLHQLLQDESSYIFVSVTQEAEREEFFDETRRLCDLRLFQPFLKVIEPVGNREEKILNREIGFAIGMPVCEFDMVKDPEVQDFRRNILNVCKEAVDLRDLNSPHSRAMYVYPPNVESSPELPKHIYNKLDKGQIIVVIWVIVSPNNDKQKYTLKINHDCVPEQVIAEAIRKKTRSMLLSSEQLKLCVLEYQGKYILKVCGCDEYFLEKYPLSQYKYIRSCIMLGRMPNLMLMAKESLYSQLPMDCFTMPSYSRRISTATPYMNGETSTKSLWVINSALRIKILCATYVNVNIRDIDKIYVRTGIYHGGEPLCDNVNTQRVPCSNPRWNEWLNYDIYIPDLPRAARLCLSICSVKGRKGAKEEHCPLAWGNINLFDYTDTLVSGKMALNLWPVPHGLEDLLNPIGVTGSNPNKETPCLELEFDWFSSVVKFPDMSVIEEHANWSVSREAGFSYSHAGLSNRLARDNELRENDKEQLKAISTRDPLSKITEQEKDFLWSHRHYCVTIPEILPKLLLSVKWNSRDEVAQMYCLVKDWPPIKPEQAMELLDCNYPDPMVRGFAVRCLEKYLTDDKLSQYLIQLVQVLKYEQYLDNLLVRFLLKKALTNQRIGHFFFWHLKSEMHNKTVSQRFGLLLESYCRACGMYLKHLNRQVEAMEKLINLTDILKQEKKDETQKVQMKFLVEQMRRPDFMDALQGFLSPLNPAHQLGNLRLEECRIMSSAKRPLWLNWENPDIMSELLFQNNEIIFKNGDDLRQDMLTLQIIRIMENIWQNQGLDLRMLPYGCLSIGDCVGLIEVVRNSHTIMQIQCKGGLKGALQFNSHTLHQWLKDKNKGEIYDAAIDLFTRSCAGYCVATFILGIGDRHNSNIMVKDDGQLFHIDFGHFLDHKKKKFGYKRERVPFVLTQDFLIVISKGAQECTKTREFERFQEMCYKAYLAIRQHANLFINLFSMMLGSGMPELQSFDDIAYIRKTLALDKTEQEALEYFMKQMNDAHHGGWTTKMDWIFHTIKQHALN

Cc1nc(C2CCN(C(=O)c3ccc(OC(F)(F)F)cc3N)CC2)c2ncc(N3CCN(C)CC3)cc2n1 [BAY-693]
inactive: residual activity [1] 92% | residual activity [2] 79% | residual activity [3] 82% | residual activity [4] 64% | inhibition [5] -6.01% | residual activity [6] 98% | residual activity [7] 94% | residual activity [8] 100% | residual activity [9] 100% | residual activity [10] 89% | residual activity [11] 85%

CN1CCN(c2cnc3c(C4CCN(C(=O)c5ccc(OC(F)(F)F)cc5N)CC4)ncnc3c2)CC1 [BAY-885]
inactive: residual activity [1] 100% | residual activity [2] 95% | residual activity [3] 100% | residual activity [4] 100% | inhibition [5] -2.34% | residual activity [6] 94% | residual activity [7] 80% | residual activity [8] 100% | residual activity [9] 100% | residual activity [10] 97% | residual activity [11] 85%
